Tested on: NOMO1
Assay: cell viability relative to DMSO control; higher = less cytotoxic
Settings: 48 h
In short: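 Viability is a per-plate percentage relative to DMSO wells, with cell-free wells as background. CellTiter-Glo One luminescence was read after 48 h at 37°C on 1536-well plates (5 μl) of NOMO1 or SEM (500 cells/well) or P12-Ichikawa (1000 cells/well) leukemia cells. The cells had been adapted for at least four passages in each medium and pin-dosed with library compounds in DMSO from 47 μM to 0.79 nM in 11 threefold steps.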

[1] = HPLM + 10% dialyzed FBS, 0.000781 µM
[2] = HPLM + 10% dialyzed FBS, 0.00234 µM
[3] = HPLM + 10% dialyzed FBS, 0.00702 µM
[4] = HPLM + 10% dialyzed FBS, 0.0211 µM
[5] = HPLM + 10% dialyzed FBS, 0.0632 µM
[6] = HPLM + 10% dialyzed FBS, 0.19 µM
[7] = HPLM + 10% dialyzed FBS, 0.569 µM
[8] = HPLM + 10% dialyzed FBS, 1.71 µM
[9] = HPLM + 10% dialyzed FBS, 5.12 µM
[10] = HPLM + 10% dialyzed FBS, 15.4 µM
[11] = HPLM + 10% dialyzed FBS, 46.1 µM
[12] = RPMI 5 mM glucose + 10% FBS, 0.000781 µM
[13] = RPMI 5 mM glucose + 10% FBS, 0.00234 µM
[14] = RPMI 5 mM glucose + 10% FBS, 0.00702 µM
[15] = RPMI 5 mM glucose + 10% FBS, 0.0211 µM
[16] = RPMI 5 mM glucose + 10% FBS, 0.0632 µM
[17] = RPMI 5 mM glucose + 10% FBS, 0.19 µM
[18] = RPMI 5 mM glucose + 10% FBS, 0.569 µM
[19] = RPMI 5 mM glucose + 10% FBS, 1.71 µM
[20] = RPMI 5 mM glucose + 10% FBS, 5.12 µM
[21] = RPMI 5 mM glucose + 10% FBS, 15.4 µM
[22] = RPMI 5 mM glucose + 10% FBS, 46.1 µM
[23] = RPMI 5 mM glucose + 10% dialyzed FBS, 0.000781 µM
[24] = RPMI 5 mM glucose + 10% dialyzed FBS, 0.00234 µM
[25] = RPMI 5 mM glucose + 10% dialyzed FBS, 0.00702 µM
[26] = RPMI 5 mM glucose + 10% dialyzed FBS, 0.0211 µM
[27] = RPMI 5 mM glucose + 10% dialyzed FBS, 0.0632 µM
[28] = RPMI 5 mM glucose + 10% dialyzed FBS, 0.19 µM
[29] = RPMI 5 mM glucose + 10% dialyzed FBS, 0.569 µM
[30] = RPMI 5 mM glucose + 10% dialyzed FBS, 1.71 µM
[31] = RPMI 5 mM glucose + 10% dialyzed FBS, 5.12 µM
[32] = RPMI 5 mM glucose + 10% dialyzed FBS, 15.4 µM
[33] = RPMI 5 mM glucose + 10% dialyzed FBS, 46.1 µM

## CCCCOc1c(C(=O)c2c(F)cc(C)cc2F)cnc2[nH]ncc12
[1]
  cell viability: 95.9%
[2]
  cell viability: 113%
[3]
  cell viability: 107%
[4]
  cell viability: 103%
[5]
  cell viability: 103%
[6]
  cell viability: 109%
[7]
  cell viability: 103%
[8]
  cell viability: 119%
[9]
  cell viability: 89.1%
[10]
  cell viability: 96.2%
[11]
  cell viability: 68.9%
[12]
  cell viability: 89.4%
[13]
  cell viability: 98.2%
[14]
  cell viability: 82.7%
[15]
  cell viability: 96.7%
[16]
  cell viability: 98.7%
[17]
  cell viability: 94%
[18]
  cell viability: 95.6%
[19]
  cell viability: 93.6%
[20]
  cell viability: 98.9%
[21]
  cell viability: 90.3%
[22]
  cell viability: 79.1%
[23]
  cell viability: 97.6%
[24]
  cell viability: 96.3%
[25]
  cell viability: 100%
[26]
  cell viability: 92.6%
[27]
  cell viability: 92.7%
[28]
  cell viability: 85.5%
[29]
  cell viability: 83.1%
[30]
  cell viability: 86.7%
[31]
  cell viability: 70.6%
[32]
  cell viability: 88.4%
[33]
  cell viability: 84.3%

## O=P(O)(O)C(O)(Cn1ccnc1)P(=O)(O)O
[1]
  cell viability: 95.9%
[2]
  cell viability: 126%
[3]
  cell viability: 120%
[4]
  cell viability: 119%
[5]
  cell viability: 125%
[6]
  cell viability: 130%
[7]
  cell viability: 121%
[8]
  cell viability: 139%
[9]
  cell viability: 104%
[10]
  cell viability: 111%
[11]
  cell viability: 117%
[12]
  cell viability: 93.5%
[13]
  cell viability: 111%
[14]
  cell viability: 108%
[15]
  cell viability: 103%
[16]
  cell viability: 105%
[17]
  cell viability: 109%
[18]
  cell viability: 101%
[19]
  cell viability: 104%
[20]
  cell viability: 110%
[21]
  cell viability: 104%
[22]
  cell viability: 101%
[23]
  cell viability: 101%
[24]
  cell viability: 127%
[25]
  cell viability: 114%
[26]
  cell viability: 130%
[27]
  cell viability: 112%
[28]
  cell viability: 133%
[29]
  cell viability: 118%
[30]
  cell viability: 124%
[31]
  cell viability: 122%
[32]
  cell viability: 117%
[33]
  cell viability: 104%

## COC(=O)c1ccc2c(c1)NC(=O)/C2=C(\Nc1ccc(N(C)C(=O)CN2CCN(C)CC2)cc1)c1ccccc1
[1]
  cell viability: 92.1%
[2]
  cell viability: 92.1%
[3]
  cell viability: 106%
[4]
  cell viability: 99.5%
[5]
  cell viability: 106%
[6]
  cell viability: 91.3%
[7]
  cell viability: 89%
[8]
  cell viability: 103%
[9]
  cell viability: 87%
[10]
  cell viability: 91.9%
[11]
  cell viability: 84.4%
[12]
  cell viability: 98.3%
[13]
  cell viability: 96.8%
[14]
  cell viability: 96.5%
[15]
  cell viability: 97.4%
[16]
  cell viability: 89.3%
[17]
  cell viability: 110%
[18]
  cell viability: 109%
[19]
  cell viability: 97.8%
[20]
  cell viability: 92.6%
[21]
  cell viability: 83.4%
[22]
  cell viability: 83.1%
[23]
  cell viability: 92.7%
[24]
  cell viability: 93%
[25]
  cell viability: 94.7%
[26]
  cell viability: 90.8%
[27]
  cell viability: 93.5%
[28]
  cell viability: 95.2%
[29]
  cell viability: 85.3%
[30]
  cell viability: 88.9%
[31]
  cell viability: 88.5%
[32]
  cell viability: 96.8%
[33]
  cell viability: 98.5%

## Cc1ccccc1C(=O)Nc1ccc(C(=O)N2CCCC(O)c3cc(Cl)ccc32)c(C)c1 (stereo not given)
[1]
  cell viability: 129%
[2]
  cell viability: 125%
[3]
  cell viability: 123%
[4]
  cell viability: 141%
[5]
  cell viability: 139%
[6]
  cell viability: 121%
[7]
  cell viability: 143%
[8]
  cell viability: 163%
[9]
  cell viability: 147%
[10]
  cell viability: 125%
[11]
  cell viability: 137%
